Results as given in patent US20180147175A1, “COMPOSITIONS AND METHODS FOR TREATMENT OF MOVEMENT DISORDERS” (ULTRAGENYX PHARMACEUTICAL INC., priority 2015, published 2018).
“Also recorded” adds a separate entry of the source.

Columns and labels:
[1] = system: brain response to cortical activation; assay: Functional 31P-NMR spectroscopy (f-MRS) of brain, Pi/PCr ratio during visual activation; format: in vivo, human
Procedure: Functional ^31P-NMR spectroscopy (f-MRS) was performed at 3 T at the end of each study phase in patients >15 years old (n=5). Data were collected for 4 minutes at rest, 8 minutes during visual activation, 8 minutes after stimulation, and analyzed as described (Adanyeguh et al., 2015, Neurology 84: 490-495 and Mochel et al., 2012, Mov Disord. 27: 907-910). The ratio of Pi/PCr was calculated to determine the brain response to cortical activation.
(§1) Paired t-tests were used for plasma analyses before and after treatment. For clinical parameters, Friedman tests were used to test the global hypothesis that all study phases were equal. If significant, Wilcoxon signed-rank tests were applied for pair-wise phase comparisons with an alpha of 0.05. For the Pi/PCr ratio, repeated measures ANOVA were used to test the global hypothesis that all time points—rest, activation and recovery—were equal. If significant, paired t-tests were applied for pair-wise time comparisons with an alpha of 0.05.

[2] = system: GLUT1-DS patients with non-epileptic paroxysmal manifestations; assay: Open-label pilot study in GLUT1-DS patients: paroxysmal events diary and clinical scales; format: in vivo, human
Excerpt: This example describes an open-label pilot study with four phases of 2 months each (baseline, treatment […], and resumption of treatment) in eight GLUT1-DS patients (7-47 years old) with non-epileptic paroxysmal manifestations.
Participants were enrolled in an interventional clinical protocol. Four children and four adults with GLUT1-DS were enrolled. […] All patients were on a normal diet prior to their enrollment. As noted above, the study was divided into four phases of 2 months each (baseline, treatment, withdrawal, and resumption of treatment). A trained dietitian determined patients' caloric intake and adapted the daily menus so the diets remained isocaloric when triheptanoin was introduced.
A comprehensive diary was kept for each patient to record all motor and non-motor paroxysmal events—including dystonia, tremor, speech disorder, stiffness, paresis, headaches, confusion, and lethargy. At each visit, patients were evaluated with a six minute walk test (6MWT), a nine-hole pegboard test (NHPT), the clinical global impression-improvement scale (CGI-I) and a fatigue severity scale (KFFS or visual analogue scale for patients <15 years old). Blood samples were collected after an overnight fast for standard analyses, and the measurement of plasma C3-carnitine and C5-ketone bodies (Mochel et al., 2005, Molecular Genetics and Metabolism 84: 305-312).
as §1

`CCCCCCC(=O)OCC(COC(=O)CCCCCC)OC(=O)CCCCCC` [triheptanoin] was tested, and the f-MRS bioenergetics profile ([1]; after 2 months on triheptanoin, ANOVA p=0.014, patients >15 years, n=5) was “corrected; also recorded: normalized”, the f-MRS profile ([1]; after treatment withdrawal) was “came back abnormal” and the tolerability ([2]; 1 g/kg/day oral, all patients) was “well tolerated”. For the same molecule, the paroxysmal manifestations ([2]; after treatment was resumed) was “dropped significantly”, the “non-epileptic paroxysmal manifestations (FIG. 1)” value ([2]; treated 2 months and on resumption, p<0.05) was “significant reduction” and the “average number of dystonic events” value ([2]; treated 2 months, 1 g/kg/day oral, n=6, baseline 16 (±19, 1-54)) was 2. For the same molecule, the “average number of paroxysmal manifestations” value ([2]; treated 2 months, 1 g/kg/day oral, n=6, baseline average 31 (±28, 10-85), p=0.028) was 3 (±3, 0-7), the “performance during the 6MWT and NHPT” value ([2]; treatment phase) was “unchanged” and the CGI-I scale ([2]; treatment phase, all patients) was “much improved”. The fatigue score ([2]; treatment phase, did not reach significance) was “tended to improve”, the fatigue score ([2]; withdrawal phase) was “worsened” and the “average number of dystonic events” value ([2]; withdrawal phase, 2 months) was 13. The “average number of paroxysmal manifestations” value ([2]; withdrawal phase, 2 months, p=0.043) was 24 and the CGI-I scale ([2]; withdrawal phase, five out of six patients) was “much worse”.
